Results: article PMC6234866, “High-Affinity Chemotaxis to Histamine Mediated by the TlpQ Chemoreceptor of the Human Pathogen Pseudomonas aeruginosa” (mBio, 2018)
Where two headings read alike, the source gives them in different places.

Experiments:
PctC-LBD = PctC-LBD (Pseudomonas aeruginosa, UniProt Q9HW93); assay: Microcalorimetric binding studies with PctC-LBD; set-up: species or system Pseudomonas aeruginosa PAO1; settings: direct microcalorimetric titration
TlpQ-LBD [1] = molecular target: TlpQ-LBD (Pseudomonas aeruginosa, UniProt Q9I0I4); assay: biochemical; format: binding, Pseudomonas aeruginosa PAO1
TlpQ-LBD [2] = assay: biochemical; format: binding, Pseudomonas aeruginosa PAO1; settings: ratio of ITC KD values
McpU-LBD [3] = molecular target: T1, McpU-LBD (Pseudomonas putida, UniProt Q88NI1); assay: Thermal shift assay of McpU-LBD; format: binding, Pseudomonas putida KT2440; settings: 10 µM McpU-LBD, Biolog plate PM3B; Tm without ligand 46.5°C
Procedure: Thermal shift experiments were conducted as reported in reference in [57]. McpU-LBD in polybuffer {5 mM Tris, 5 mM PIPES [piperazine-N,N′-bis(2-ethanesulfonic acid)], 5 mM MES [morpholineethanesulfonic acid], 10% glycerol [vol/vol], 150 mM NaCl, pH 7.0} was used at a final concentration of 10 µM. Biolog (Hayward, CA, USA) compound arrays PM3B (nitrogen sources), PM4A (phosphorous and sulfur sources), and PM5 (nutrient supplements) were used for screening. The compositions of these arrays are provided at http://208.106.130.253/pdf/pm_lit/PM1-PM10.pdf.

KT2440 = assay: Growth with ligand as sole carbon or nitrogen source, KT2440; settings: KT2440, minimal medium, 5 mM ligand
PAO1 = assay: Growth with ligand as sole carbon or nitrogen source, PAO1; settings: PAO1, minimal medium, 5 mM ligand
McpU-LBD [4] = molecular target: T1, McpU-LBD; assay: ITC binding of ligands to McpU-LBD; set-up: species or system Pseudomonas putida KT2440; settings: for ΔH McpU-LBD / Kd: 25°C; for Kd: polybuffer pH 7.0
McpU-LBD [5] = molecular target: T1, McpU-LBD; settings: read-out: KD McpU-LBD; ITC; reported previously; cited from earlier work
[6] = test system: Ralstonia pseudosolanacearum Ps29; settings: 5 mM histamine, strain Ps29
[7] = test system: Ralstonia pseudosolanacearum Ps29; settings: Ps29, minimal medium, 5 mM
[8] = test system: P. aeruginosa PA14 mutant defective in pctA, pctC and tlpQ; settings: deletion of pctA, tlpQ homologues
Procedure: (§1) Two protocols were used that differed in the ways the cells were counted. The first protocol was used to generate the data shown Fig. S6, whereas the second protocol was used for the remaining chemotaxis experiments. In the first protocol, overnight cultures of strains were diluted to an OD660 of 0.05 in MS medium ([58]) supplemented with 6 mg·liter^−1 Fe citrate, trace elements, and 15 mM glucose and grown at 37°C. At an OD660 of 0.4, the cultures were centrifuged at 1,700 × g for 5 min and the pellet was washed twice with chemotaxis buffer (50 mM potassium phosphate, […], 0.05% [vol/vol] glycerol, pH 7.0). The cells were resuspended in this buffer and adjusted to an OD660 of 0.1, and 230-µl aliquots were placed into 96-well plates. Capillary tubes (P1424, Microcaps; Drummond Scientific) were heat sealed at one end and filled with chemotaxis buffer or chemotaxis chemoattractant solution. The capillaries were then immersed in bacterial suspensions at their open ends. After 30 min at room temperature, the capillaries were removed and rinsed with sterile water, and the content was expelled into 1 ml of M9 medium. Serial dilutions were plated on LB medium, and the CFU were determined. In all cases, the data were corrected to the number of cells that swam into the buffer-containing capillaries. In the second protocol, we used computer-assisted image analysis as reported previously ([59]). Briefly, capillaries were filled with chemoattractant solutions in 10 mM HEPES buffer (pH 7.0) containing 1% (wt/vol) agarose and heat sealed on one side. The cells were grown in 2× yeast extract-tryptone (YT), medium and 10-μl aliquots of the cell suspension were placed onto a microscope slide within the U-shaped spacer, which was then covered by a coverslip. The chemoattractant-filled capillaries were introduced into the chemotaxis chamber, and cell movement was videotaped, with images taken at the beginning and at different time intervals. If not otherwise stated, the contact time between the cell and the chemoattractant was 2 min. The Bioinformatics Assistant Icy Sport detector software ([60]) was used to determine the number of cells per image. The magnitude of chemotaxis was expressed as the number of cells after a given time over the number of cells at the beginning of the experiment. The data shown are the means and standard deviations from three experiments conducted in triplicates.

P. aeruginosa PAO1 = settings: PAO1, capillary assay
Procedure: as §1

[9] = test system: P. aeruginosa strains 233, 401 and PA14; settings: 5 mM histamine; all analyzed P. aeruginosa strains
Procedure: as §1

[10] = test system: P. aeruginosa PAO1 mutant strains
Procedure: as §1

PctA-LBD = PctA-LBD (Pseudomonas aeruginosa, UniProt G3XD24); settings: for binding to PctA-LBD (in words): direct microcalorimetric titration
Sequence of PctA-LBD (G3XD24 32-276): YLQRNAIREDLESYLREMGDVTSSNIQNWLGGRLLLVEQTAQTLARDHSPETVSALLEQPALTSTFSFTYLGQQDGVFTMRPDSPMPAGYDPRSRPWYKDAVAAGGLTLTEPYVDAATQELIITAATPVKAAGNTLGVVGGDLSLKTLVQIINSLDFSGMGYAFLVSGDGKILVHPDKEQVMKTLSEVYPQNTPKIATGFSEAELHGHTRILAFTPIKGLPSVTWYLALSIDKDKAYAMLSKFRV

T1 sequence (Q88NI1 50-284): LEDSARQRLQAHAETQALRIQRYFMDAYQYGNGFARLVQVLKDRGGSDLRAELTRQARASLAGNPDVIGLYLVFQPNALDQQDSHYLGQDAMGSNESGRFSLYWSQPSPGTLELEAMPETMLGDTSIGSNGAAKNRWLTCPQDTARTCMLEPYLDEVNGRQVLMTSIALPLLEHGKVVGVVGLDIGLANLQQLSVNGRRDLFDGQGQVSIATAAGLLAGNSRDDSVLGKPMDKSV
Sequence of TlpQ-LBD (Pseudomonas aeruginosa, UniProt Q9I0I4) (Q9I0I4 33-359): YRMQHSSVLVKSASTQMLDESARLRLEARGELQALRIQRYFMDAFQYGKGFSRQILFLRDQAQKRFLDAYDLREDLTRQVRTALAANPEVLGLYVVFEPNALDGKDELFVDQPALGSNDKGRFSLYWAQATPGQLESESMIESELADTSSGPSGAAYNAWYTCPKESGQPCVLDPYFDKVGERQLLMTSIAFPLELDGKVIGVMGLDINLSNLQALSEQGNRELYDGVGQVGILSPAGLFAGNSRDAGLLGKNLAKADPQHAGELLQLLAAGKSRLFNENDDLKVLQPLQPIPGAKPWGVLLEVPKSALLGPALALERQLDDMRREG
Sequence of PctC-LBD (Q9HW93 32-279): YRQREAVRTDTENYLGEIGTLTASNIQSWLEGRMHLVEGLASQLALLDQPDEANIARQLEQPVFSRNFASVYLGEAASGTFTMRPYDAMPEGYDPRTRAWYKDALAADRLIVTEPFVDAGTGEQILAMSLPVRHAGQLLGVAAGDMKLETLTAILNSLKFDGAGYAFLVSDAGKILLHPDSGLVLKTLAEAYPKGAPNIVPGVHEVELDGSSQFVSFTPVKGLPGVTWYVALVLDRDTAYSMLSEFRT

SMILES: NC(=O)CC[C@H](N)C(=O)O [L-Gln, reference compound]
- binding to PctC-LBD (in words) (PctC-LBD): bound

SMILES: C=C [ethylene]
- binding to TlpQ-LBD (in words) (TlpQ-LBD [1]; ITC): did not show any binding

SMILES: NCCN [Ethylenediamine]
- binding to TlpQ-LBD (in words) (TlpQ-LBD [1]; ITC): slightly weaker
- ΔH TlpQ-LBD (TlpQ-LBD [1]; ITC, 25°C): -6.3 ± 0.6 kcal/mol
- Kd (TlpQ-LBD [1]; ITC, 25°C, polybuffer pH 7.0, read-out: KD TlpQ-LBD): 1.71 µM
- KD McpU-LBD/KD TlpQ-LBD (TlpQ-LBD [2]): 23
- Tm increase of McpU-LBD (McpU-LBD [3]): greater than 2 °C
- growth as sole carbon or nitrogen source (KT2440): either not or were poor growth substrates
- growth as sole carbon or nitrogen source (PAO1): either not or were poor growth substrates
- binding to McpU-LBD (in words) (McpU-LBD [4]): much lower affinities
- ΔH McpU-LBD (McpU-LBD [4]): -9.7 ± 0.5 kcal/mol
- Kd (McpU-LBD [4]): 39 ± 4 µM

SMILES: NCCCCNCCCN [Spermidine]
- Kd (TlpQ-LBD [1]): 0.056 ± 0.004 µM
- ΔH TlpQ-LBD (TlpQ-LBD [1]; ITC, 25°C): -4.6 ± 0.4 kcal/mol
- KD McpU-LBD/KD TlpQ-LBD (TlpQ-LBD [2]): 80
- Kd (McpU-LBD [5]): 4.5 ± 0.4 µM
- growth as sole carbon or nitrogen source (KT2440): either not or were poor growth substrates
- growth as sole carbon or nitrogen source (PAO1): either not or were poor growth substrates
- ΔH McpU-LBD (McpU-LBD [4]): -4.3 ± 0.3 kcal/mol

SMILES: NCCc1c[nH]cn1 [Histamine]
- chemotaxis (in words) [6]: not attracted
- growth as sole carbon and nitrogen source [7]: no significant growth
- Kd (TlpQ-LBD [1]): 0.639 ± 0.027 µM
- ΔH TlpQ-LBD (TlpQ-LBD [1]; ITC, 25°C): -9.1 ± 0.3 kcal/mol
- KD McpU-LBD/KD TlpQ-LBD (TlpQ-LBD [2]): 41
- chemotaxis of PA14 triple mutant [8]: abolished histamine chemotaxis
- concentration at onset of chemotactic response (P. aeruginosa PAO1): 500 nM
- chemotaxis (in words) (P. aeruginosa PAO1; 2 min): much stronger
- chemotaxis (in words) [9]: significant chemotaxis
- chemotaxis of PCT2Q complemented with pctA, pctC or tlpQ ([10]; 500 µM histamine, 2.5 min): significant chemotaxis
- chemotaxis of PCT2Q complemented with pctC or tlpQ in trans ([10]; 500 µM histamine, exposure time 1 min): recovered histamine chemotaxis
- chemotaxis of strain PCT2 (pctA, pctB, pctC deleted) ([10]; 5 mM histamine): abolished chemotaxis
- concentration range of significant chemotaxis of PCT2 mutant ([10]; dose response): 0.5 µM and 500 µM
- chemotaxis of PCT2Q mutant (pctABC and tlpQ deleted) ([10]; entire concentration range 50 nM to 50 mM): devoid of histamine chemotaxis
- Tm increase of McpU-LBD (McpU-LBD [3]): greater than 2 °C
- binding to PctA-LBD, competition assay (in words) (PctA-LBD; PctA-LBD titrated with L-Ala with and without 20 mM histamine): does not bind directly
- binding to PctA-LBD (in words) (PctA-LBD): did not bind
- binding to PctC-LBD (in words) (PctC-LBD): did not bind
- growth as sole carbon or nitrogen source (KT2440): permitted the growth
- growth as sole carbon or nitrogen source (PAO1): permitted the growth
- binding to McpU-LBD (in words) (McpU-LBD [4]): much lower affinities
- ΔH McpU-LBD (McpU-LBD [4]): -2.6 ± 0.3 kcal/mol
- Kd (McpU-LBD [4]): 26 ± 2 µM
- concentration at onset of chemotactic response (P. putida KT2440; KT2440, capillary assay): 5 µM
- chemotaxis (in words) (P. putida KT2440; KT2440, histamine dose response): only moderate chemotaxis

SMILES: NCCCCN=C(N)N [Agmatine]
- Kd (TlpQ-LBD [1]): 0.15 ± 0.009 µM
- ΔH TlpQ-LBD (TlpQ-LBD [1]; ITC, 25°C): -5.4 ± 0.1 kcal/mol
- KD McpU-LBD/KD TlpQ-LBD (TlpQ-LBD [2]): 3
- Tm increase of McpU-LBD (McpU-LBD [3]): greater than 2 °C
- binding to McpU-LBD (in words) (McpU-LBD [4]): Very tight binding
- ΔH McpU-LBD (McpU-LBD [4]): -14.5 ± 0.2 kcal/mol
- Kd (McpU-LBD [4]): 0.48 ± 0.02 µM

SMILES: NCCCCN [Putrescine]
- Kd (TlpQ-LBD [1]): 0.134 ± 0.012 µM
- ΔH TlpQ-LBD (TlpQ-LBD [1]; ITC, 25°C): -6.8 ± 0.3 kcal/mol
- KD McpU-LBD/KD TlpQ-LBD (TlpQ-LBD [2]): 15
- Kd (McpU-LBD [5]): 2 ± 0.1 µM
- ΔH McpU-LBD (McpU-LBD [4]): -15 ± 0.5 kcal/mol

SMILES: C[C@H](N)C(=O)O [L-Ala, L-alanine, reference compound]
- binding to PctA-LBD (in words) (PctA-LBD): bound

SMILES: NCCCCCN [Cadaverine]
- Kd (TlpQ-LBD [1]): 0.15 ± 0.004 µM
- ΔH TlpQ-LBD (TlpQ-LBD [1]; ITC, 25°C): -6.0 ± 0.1 kcal/mol
- KD McpU-LBD/KD TlpQ-LBD (TlpQ-LBD [2]): 147
- Kd (McpU-LBD [5]): 22 ± 2 µM
- ΔH McpU-LBD (McpU-LBD [4]): -15.5 ± 0.5 kcal/mol
